Test results reported in US20020151599A1, “FORMULATIONS HAVING AN ANTIVIRAL ACTION” (priority 1999, published 2002).

Experiments:
[1] = skin tolerability
[2] = solubility in solvents; format: physicochemical
Excerpt: By virtue of its solubility profile, the compound is readily miscible, in some cases using solubilizers, with oils, fats and emulsions and, in view of its profile of properties, can be used in combination with other known light protection filters. […] In view of the property profile of isoquercitrin, it is easy for the person skilled in the art to choose suitable solvents and additives depending on the desired preparation product. It is particularly easy to prepare emulsions, gels or emulsion care sticks with isoquercitrin. It is, however, also possible to prepare all other cosmetic formulations, such as ointments, creams, lotions, oils, sticks and sprays, and also pharmaceutical formulations in solid or liquid form using appropriate additives.

[3] = system: herpes simplex viruses; settings: compounds of the same aglycone compared; quercetin active only in very high doses, if at all; cited from earlier work

**Q.** Which “skin tolerance, toxic or allergic reaction” value [1] does the source give for O=c1c(O[C@@H]2O[C@H](CO)[C@@H](O)[C@H](O)[C@H]2O)c(-c2ccc(O)c(O)c2)oc2cc(O)cc(O)c12 [isoquercitrin] here?
**A.** well tolerated by the skin

**Q.** What about the “solubility in polar solvents” value ([2]; ethanol or 1,2-propylene glycol) of the same compound?
**A.** particularly readily soluble

**Q.** What about the solubility in glycerol ([2]; glycerol, forms a slightly cloudy solution) of the same compound?
**A.** soluble in glycerol

**Q.** Which antiviral effects [3] does the source give for O=c1c(O)c(-c2ccc(O)c(O)c2)oc2cc(O)cc(O)c12 [quercetin] here?
**A.** virtually no antiviral effects
